Results: ChEMBL document CHEMBL3817761, “Chenopodium album metabolites act as dual topoisomerase inhibitors and induce apoptosis in the MCF7 cell line” (Medchemcomm, 2016)

Tested on: MCF7
Experiment: Induction of apoptosis in human MCF7 cells assessed as early apoptotic cells at 11.33 uM after 48 hrs by Annexin-V-FITC/propidium iodide staining based flow cytometry (reference value: 0.4 %)
Assay type: functional

## CC1(C)CC[C@]2(C(=O)O)CC[C@]3(C)C(=CC[C@@H]4[C@@]5(C)CC[C@H](O[C@@H]6O[C@H](C(=O)O)[C@@H](O)[C@H](O)[C@H]6O)C(C)(C)[C@@H]5CC[C@]43C)[C@@H]2C1
  Activity: 46%
